Reference: patent US6787551B2, “Thiazolidinedione derivatives and pharmaceutical composition comprising the same” (Chong Kun Dang Pharmaceutical Corporation, priority 2002, dated 2004)
Read-outs that look alike come from different tables or passages of the source.

Experiments:
[1] = system: differentiated 3T3-L1 cell; test: 2-Deoxy-D-[2,6-3H] glucose uptake assay; assay type: cell-based; settings: differentiated 3T3-L1 cells, 24 h with compound, 0.5 nM insulin, concentration giving 50% of maximum enhancement of insulin activation, read-out: 2-deoxyglucose uptake (EC50 nM)
Method: 1) 2-Deoxy-D-[2,6-3H] glucose uptake assay (in differentiated 3T3-L1 cell)
Undifferentiated adipocyte 3T3-L1 cells were inoculated in a 24-well plate and cultivated in a CO2 incubator at 37° C. To induce differentiation of the undifferentiated adipocytes, the cells were then incubated in a differentiation medium. After adding a certain concentration of each of the test compounds to the medium, the cells were again incubated for 24 hours. After removing the medium, the cells were washed with phosphate buffer, and 0.5 nM of insulin in phosphate buffer was added to the washed cells, followed by incubation for 40 minutes. Then, 0.5 uCi of 2-deoxy-D-[2,6-3H] glucose per well was again added to the cells, which were let stand for 4 minutes. Then, the cells were washed with phosphate buffer, and cell lysis buffer was added, so as to dissolve the cell membranes. The cell sample was placed into a liquid scintillation cocktail solution. The radioactivity of the sample was counted by a liquid scintillation counter.

3T3-L1 cells = test: Triglyceride accumulation assay; assay type: cell-based; settings: 4 days with compound, concentration giving 50% of maximum enhancement of rosiglitazone activation
Method: 2) Triglyceride accumulation assay (in 3T3-L1 cells)
Undifferentiated adipocyte 3T3-L1 cells were inoculated in a 24-well plate and cultivated in a CO2 incubator at 37° C. To induce differentiation of the undifferentiated adipocytes, the cells were then incubated in a differentiation medium for 48 hours. After adding a certain concentration of each of the test compounds to the differentiation medium, the cells were again incubated for 4 days. Then, the final cell sample was placed into 200 μl of 2-propanol. The amount of triglyceride in the cells were measured by Triglyceride Kit [YEONGDONG PHARMACEUTICAL CO. LTD., Korea] commercially available.

[2] = system: mice with diabetes (KK/Ay); test: Blood glucose- and blood lipid-lowering action in mice with diabetes; assay type: in vivo; settings: male KK/Ay mice, daily oral administration for 5 days; for Blood glucose (ED25): dose reducing blood glucose by 25%; for Triglyceride (ED25): dose reducing triglyceride by 25%
Method: Male mice with diabetes (KK/Ay: 10 weeks old, 5 animals/group) were housed and given free access to water and food. The animals received a daily oral administration of the test compounds for 5 days. After the last dose, a blood sample was drawn via the orbital sinus.
The plasma was analyzed for blood glucose content using the Glucose-E kit (YEONGDONG PHARMACEUTICAL CO. LTD., Korea), and for triglyceride content using the Triglyceride kit (YEONGDONG PHARMACEUTICAL CO. LTD., Korea).

[3] = system: primary cultured rat hepatocytes; test: Cytotoxicity assay in primary cultured rat hepatocytes (neutral red); settings: for Safety index (TC25 nM/EC50 nM): TC25 in hepatocyte cytotoxicity assay / EC50 in triglyceride accumulation assay; for Cytotoxicity in hepatocyte (TC25 uM): primary rat hepatocytes, 24 h, neutral red, 25% toxic concentration
Method: Hepatocytes isolated from rat were inoculated in a collagen-coated 24 well plate and was incubated in a CO2 incubator at 37° C. for 24 hours. Then, a certain concentration of each of the test compounds was added, and the cells were again incubated for 24 hours. The cells were then incubated in a 0.4% neutral red containing medium for 4 hours and washed once with phosphate buffer. 0.5 ml of a solution of 1% acetic acid-50% ethanol was added to the cells, which were let stand. 200 ul of the cell sample was taken and absorbance was measured at 570 nm. The cytotoxicity assay performed on hepatocytes was measured as 25% toxic concentration (TC25, uM). Then, the safety index, i.e. the TC25 value in the cytotoxicity assay in hepatocyte/the EC50 value in the triglyceride accumulation assay, was calculated.

Row | Compound | EC50 [1] | EC50 (3T3-L1 cells) | Blood glucose (ED25) [2] | Triglyceride (ED25) [2] | Safety index (TC25 nM/EC50 nM) [3] | Cytotoxicity in hepatocyte (TC25 uM) [3] | EC50 ([1]; Mus musculus) | EC50 (3T3-L1 cells; Mus musculus, 96 h)
1 | CC(C)Oc1ccc(Oc2cc(N(C)CCOc3ccc(CC4SC(=O)NC4=O)cc3)ncn2)cc1 (stereo not drawn) [Ex. 27, 5-(4-[2-(N-methyl-N-(6-(4-(4-isopropoxy)phenoxy)pyrimidinyl)amino)ethoxy]benzyl)-2,4-thiazolidinedione] | 35.5 nM | 21.7 nM | 0.8 mg/kg | 4.5 mg/kg | 3594 | 78000 nM |  | 
2 | 5-(4-[2-(N-methyl-N-2-(4-(4-isopropyl)pyridinyl)amino)ethoxy]benzyl)-2,4-thiazolidinedione [Ex. 36] | 20.9 nM | 16.3 nM | 3.5 mg/kg | 14.9 mg/kg | 4663 | 76000 nM |  | 
3 | CCOc1ccc(Oc2cc(N(C)CCOc3ccc(CC4SC(=O)NC4=O)cc3)ncn2)cc1 (stereo not drawn) [Ex. 26, 5-(4-[2-(N-methyl-N-(6-(4-(4-ethoxy)phenoxy)pyrimidinyl)amino)ethoxy]benzyl)-2,4-thiazolidinedione] | 14.4 nM | 7.7 nM | 0.8 mg/kg | 4.3 mg/kg | 12338 | 95000 nM |  | 
4 | CC(C)c1ccc(Oc2cc(N(C)CCOc3ccc(CC4SC(=O)NC4=O)cc3)ncn2)cc1 (stereo not drawn) [Ex. 30, 5-(4-[2-(N-methyl-N-(6-(4-(4-isopropyl)phenoxy)pyrimidinyl)amino)ethoxy]benzyl)-2,4-thiazolidinedione] | 13.3 nM | 6.5 nM | 2.1 mg/kg | 21.2 mg/kg | 11077 | 72000 nM |  | 
5 | COc1ccc(Oc2cc(N(C)CCOc3ccc(CC4SC(=O)NC4=O)cc3)ncn2)cc1 (stereo not drawn) [Ex. 25, 5-(4-[2-(N-methyl-N-(6-(4-(4-methoxy)phenoxy)pyrimidinyl)amino)ethoxy]benzyl)-2,4-thiazolidinedione] | 0.2 nM | 0.11 nM | 0.15 mg/kg | 0.5 mg/kg | 727272 | 80000 nM |  | 
6 | CN(CCOc1ccc(CC2SC(=O)NC2=O)cc1)c1cc(Oc2ccc(-c3ccccc3)cc2)ncn1 (stereo not drawn) [Ex. 31] | 20.5 nM | 12.5 nM | 3.2 mg/kg | 12.6 mg/kg | 5840 | 73000 nM |  | 
7 | CN(CCOc1ccc(C=C2SC(=O)NC2=O)cc1)c1cc(Oc2ccc(-c3ccccc3)cc2)ncn1 [Ex. 12, 5-(4-[2-(N-methyl-N-(6-(4-(4-phenyl)phenoxy)pyrimidinyl)amino)ethoxy]benzylidene)-2,4-thiazolidinedione] | 49.5 nM | 46.8 nM | 4.1 mg/kg | 25 mg/kg | 1816 | 85000 nM |  | 
8 | CCc1ccc(Oc2cc(N(C)CCOc3ccc(CC4SC(=O)NC4=O)cc3)ncn2)cc1 (stereo not drawn) [Ex. 28, 5-(4-[2-(N-methyl-N-(6-(4-(4-ethyl)phenoxy)pyrimidinyl)amino)ethoxy]benzyl)-2,4-thiazolidinedione] | 5.2 nM | 2.1 nM | 1.8 mg/kg | 16.9 mg/kg | 40476 | 85000 nM |  | 
9 | CN(CCOc1ccc(CC2SC(=O)NC2=O)cc1)c1cc(Oc2ccccc2)ccn1 (stereo not drawn) [Ex. 22, 5-(4-[2-(N-methyl-N-(2-(4-phenoxy)pyridinyl)amino)ethoxy]benzyl)-2,4-thiazolidinedione] | 1.8 nM | 0.54 nM | 0.7 mg/kg | 3.9 mg/kg | 137037 | 74000 nM |  | 
10 | CN(CCOc1ccc(C=C2SC(=O)NC2=O)cc1)c1cc(Oc2ccccc2)ncn1 [Ex. 1] | 58 nM | 38 nM | 4.0 mg/kg | 30 mg/kg | 2578 | 98000 nM |  | 
11 | CN(CCOc1ccc(CC2SC(=O)NC2=O)cc1)c1ccccn1 (stereo not drawn) [Rosiglitazone, reference compound] |  |  | 4.1 mg/kg | More than 30 mg/kg | 1489 | 70000 nM | 75 nM | 47 nM
12 | CN(CCOc1ccc(C=C2SC(=O)NC2=O)cc1)c1cc(Oc2ccc(Cl)cc2)ncn1 [Ex. 5, 5-(4-[2-(N-methyl-N-(6-(4-(4-chloro)phenoxy)pyrimidinyl)amino)ethoxy]benzylidene)-2,4-thiazolidinedione] | 45 nM | 35 nM | 4.0 mg/kg | 28 mg/kg | 2657 | 93000 nM |  | 
13 | CCc1ccc(Oc2cc(N(C)CCOc3ccc(C=C4SC(=O)NC4=O)cc3)ncn2)cc1 [Ex. 9, 5-(4-[2-(N-methyl-N-(6-(4-(4-ethyl)phenoxy)pyrimidinyl)amino)ethoxy]benzylidene)-2,4-thiazolidinedione] | 55.2 nM | 29.9 nM | 4.1 mg/kg | 29 mg/kg | 3010 | 90000 nM |  | 
14 | CN(CCOc1ccc(CC2SC(=O)NC2=O)cc1)c1cc(Oc2ccccc2)ncn1 (stereo not drawn) [Ex. 20, 5-(4-[2-(N-methyl-N-(6-(4-phenoxy)pyrimidinyl)amino)ethoxy]benzyl)-2,4-thiazolidinedione] | 7.5 nM | 2.7 nM | 0.22 mg/kg | 1.2 mg/kg | 29630 | 80000 nM |  | 
15 | 5-(4-[2-(N-methyl-N-(2-(4-(4-fluoro)phenoxy)pyridinyl)amino)ethoxy]benzyl)-2,4-thiazolidinedione [Ex. 33] | 8.9 nM | 5.6 nM | 1.1 mg/kg | 6.5 mg/kg | 17679 | 99000 nM |  | 
16 | CN(CCOc1ccc(CC2SC(=O)NC2=O)cc1)c1cc(Oc2ccc(F)cc2)ncn1 (stereo not drawn) [Ex. 23, 5-(4-[2-(N-methyl-N-(6-(4-(4-fluoro)phenoxy)pyrimidinyl)amino)ethoxy]benzyl)-2,4-thiazolidinedione] | 2.4 nM | 0.81 nM | 0.25 mg/kg | 2.2 mg/kg | 87654 | 71000 nM |  | 
17 | CN(CCOc1ccc(CC2SC(=O)NC2=O)cc1)c1cc(Oc2ccc(Cl)cc2)ncn1 (stereo not drawn) [Ex. 24, 5-(4-[2-(N-methyl-N-(6-(4-(4-chloro)phenoxy)pyrimidinyl)amino)ethoxy]benzyl)-2,4-thiazolidinedione] | 0.2 nM | 0.1 nM | 0.18 mg/kg | 0.6 mg/kg | 750000 | 75000 nM |  | 
18 | COc1ccc(Oc2ccnc(N(C)CCOc3ccc(CC4SC(=O)NC4=O)cc3)c2)cc1 (stereo not drawn) [Ex. 35, 5-(4-[2-(N-methyl-N-(2-(4-(4-methoxy)phenoxy)pyridinyl)amino)ethoxy]benzyl)-2,4-thiazolidinedione] | 19.3 nM | 9.6 nM | 2.5 mg/kg | 9.1 mg/kg | 10000 | 96000 nM |  | 
19 | 5-(4-[2-(N-methyl-N-(2-(4-(4-chloro)phenoxy)pyridinyl)amino)ethoxy]benzyl)-2,4-thiazolidinedione [Ex. 34] | 4 nM | 1.5 nM | 1.9 mg/kg | 5.6 mg/kg | 48667 | 73000 nM |  | 
